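96-well plates; 48 h exposure; 5 concentrations. Endpoints by linear interpolation between flanking doses. Not reached: highest tested concentration assigned. At the GI50, growth is halved.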 Active and inactive are the calls of the source. No stated cut-off is given here; in the data, active = GI50 up to about 1.1 µM and inactive = higher.
Key:
Experiment in all cases: NCI tumour cell line growth inhibition, 48 h
[1] = test system: SF-295
[2] = test system: HOP-62
[3] = test system: K562
[4] = test system: RPMI-8226
[5] = test system: HOP-92
[6] = test system: BT-549
[7] = test system: MDA-MB-231
[8] = test system: A498
[9] = test system: SK-MEL-28
[10] = test system: SF-268
[11] = test system: CCRF-CEM
[12] = test system: SK-MEL-5
[13] = test system: NCI-H522
[14] = test system: OVCAR-5
[15] = test system: RXF 393
[16] = test system: MOLT-4
[17] = test system: HT-29
[18] = test system: UACC-257
[19] = test system: Malme-3M

Structure (SMILES)	GI50 [1]	GI50 [2]	GI50 [3]	GI50 [4]	GI50 [5]	GI50 [6]	GI50 [7]	GI50 [8]	GI50 [9]	GI50 [10]	GI50 [11]	GI50 [12]	GI50 [13]	GI50 [14]	GI50 [15]	GI50 [16]	GI50 [17]	GI50 [18]	GI50 [19]
C=CCN1C(=O)/C(=C/c2ccc(C)cc2)NC1=S	75 µM (inactive)	> 100 µM (inactive)	41.9 µM (inactive)	39.4 µM (inactive)	59.3 µM (inactive)	> 100 µM (inactive)	60.1 µM (inactive)	47 µM (inactive)	> 100 µM (inactive)	> 100 µM (inactive)	33 µM (inactive)	39.6 µM (inactive)	43 µM (inactive)	> 100 µM (inactive)	> 100 µM (inactive)	27.1 µM (inactive)	96.6 µM (inactive)	43.6 µM (inactive)	
CN(C)c1ccc(/C=C(\NC(=O)c2ccccc2)C(=O)Nc2ccccc2C(=O)NCc2ccccc2)cc1	> 100 µM (inactive)	31.4 µM (inactive)	> 100 µM (inactive)	67.5 µM (inactive)	> 100 µM (inactive)	> 100 µM (inactive)	> 100 µM (inactive)	> 100 µM (inactive)	> 100 µM (inactive)	> 100 µM (inactive)	62.4 µM (inactive)	41.9 µM (inactive)	27.6 µM (inactive)	> 100 µM (inactive)	> 100 µM (inactive)	56.4 µM (inactive)	> 100 µM (inactive)	36.1 µM (inactive)	> 100 µM (inactive)
COc1cccc(C2SCC(=O)N2c2ccc(-n3c(-c4ccccc4)nc4ccccc4c3=O)cc2)c1OC (stereo unspecified)	> 100 µM (inactive)	> 100 µM (inactive)	> 100 µM (inactive)	> 100 µM (inactive)	> 100 µM (inactive)	> 100 µM (inactive)	> 100 µM (inactive)	> 100 µM (inactive)	> 100 µM (inactive)	> 100 µM (inactive)	> 100 µM (inactive)	> 100 µM (inactive)	> 100 µM (inactive)	> 100 µM (inactive)	> 100 µM (inactive)	> 100 µM (inactive)	> 100 µM (inactive)	> 100 µM (inactive)	> 100 µM (inactive)
O=C(O)CN1CCNCCN(CC(=O)O)CCNCC1	> 87.7 µM (inactive)	> 100 µM (inactive)	3.85 µM (inactive)	6.31 µM (inactive)	82.4 µM (inactive)	> 85.5 µM (inactive)	> 100 µM (inactive)	50 µM (inactive)		> 100 µM (inactive)	4.8 µM (inactive)	5.28 µM (inactive)	14.7 µM (inactive)	> 85.1 µM (inactive)	> 100 µM (inactive)	5.14 µM (inactive)	13.5 µM (inactive)	> 73.3 µM (inactive)	56.9 µM (inactive)
CN(C)c1ccc(C(=N/N=C2\C(=O)Nc3ccccc32)c2ccc(N(C)C)cc2)cc1	0.308 µM (active)	0.933 µM (active)	0.196 µM (active)	0.22 µM (active)	12.8 µM (inactive)	0.938 µM (active)	0.767 µM (active)	1.96 µM (inactive)	3.17 µM (inactive)	0.942 µM (active)	0.935 µM (active)	0.417 µM (active)	0.167 µM (active)	3.72 µM (inactive)	0.172 µM (active)	0.422 µM (active)	0.348 µM (active)	24.5 µM (inactive)	2.17 µM (inactive)
Oc1cc(O)c2c(c1)OC(c1ccc(O)c(O)c1)C(O)C2c1c(O)cc(O)c2c1OC(c1ccc(O)c(O)c1)C(O)C2 (stereo unspecified)	> 100 µM (inactive)	> 100 µM (inactive)		> 100 µM (inactive)	> 100 µM (inactive)	> 100 µM (inactive)	> 100 µM (inactive)	45.5 µM (inactive)	> 100 µM (inactive)	> 100 µM (inactive)		> 100 µM (inactive)	> 100 µM (inactive)	> 100 µM (inactive)	> 100 µM (inactive)		> 100 µM (inactive)	> 100 µM (inactive)	> 100 µM (inactive)
COc1ccc(N(C(=O)OC(C)(C)C)[C@@H]2C(C)=C[C@H]([S@@+]([O-])c3ccc(C)cc3)[C@@H]3C(=O)N(C)C(=O)[C@@H]32)cc1	15.8 µM (inactive)	24.4 µM (inactive)	30 µM (inactive)	14.3 µM (inactive)	17.7 µM (inactive)	13.6 µM (inactive)	17.4 µM (inactive)	10.1 µM (inactive)	18.7 µM (inactive)	12.6 µM (inactive)	5.48 µM (inactive)	16.6 µM (inactive)	4.2 µM (inactive)	21.9 µM (inactive)	15.3 µM (inactive)	27.5 µM (inactive)	21.5 µM (inactive)	17.5 µM (inactive)	18.6 µM (inactive)
C/C=C(/C)C(=O)O[C@H]1C(C)=C[C@]23C(=O)[C@@H](C=C(COC(C)=O)[C@@H](O)[C@]12O)[C@H]1[C@@H](C[C@H]3C)[C@@]1(C)OC(=O)/C(C)=C\C	1.08 µM (active)	2.37 µM (inactive)	0.0205 µM (active)		1.25 µM (inactive)	2.38 µM (inactive)	3.03 µM (inactive)	2.72 µM (inactive)	3.69 µM (inactive)	0.655 µM (active)	0.486 µM (active)	0.307 µM (active)	1.8 µM (inactive)	3.15 µM (inactive)	2.65 µM (inactive)	0.0449 µM (active)	0.411 µM (active)	3.63 µM (inactive)	0.111 µM (active)
